Test results taken from PubChem BioAssay AID256 (DTP/NCI, 2004).
Values joined by “and” are separate entries in the source; they are usually repeats but may differ in a detail not shown here. Equal entries are not always repeated. Inconclusive results and toxic doses are left out. How the source made its calls: active means survival T/C of 150% or more; inactive means T/C below 125% in these data.

Tested on: CD2F1 mice, L1210 leukemia ip, survival T/C
Test: NCI In Vivo Anticancer Drug Screen. Data for tumor model L1210 Leukemia (intraperitoneal) in CD2F1 (CDF1) mice
Settings: higher = longer survival
How it was run: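 Tumor-bearing mice (transplanted tumor) were split into treated and vehicle control groups, and the measured endpoint of each treated group was divided by that of its vehicle controls.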

[1] = endpoint: mean survival time, dose: 25.0 mg/kg/injection, schedule: Q01DX009 (ip), vehicle: saline with Tween-80
[2] = endpoint: mean survival time, dose: 50.0 mg/kg/injection, schedule: Q01DX009 (ip), vehicle: saline with Tween-80
[3] = endpoint: mean survival time, dose: 100.0 mg/kg/injection, schedule: Q04DX003 (ip), vehicle: saline with Tween-80
[4] = endpoint: mean survival time, dose: 200.0 mg/kg/injection, schedule: Q04DX003 (ip), vehicle: saline with Tween-80
[5] = endpoint: mean survival time, dose: 400.0 mg/kg/injection, schedule: Q04DX003 (ip), vehicle: saline with Tween-80
[6] = endpoint: mean survival time, dose: 100.0 mg/kg/injection, schedule: Q01DX009 (ip), vehicle: saline with Tween-80
[7] = endpoint: mean survival time, dose: 200.0 mg/kg/injection, schedule: Q01DX009 (ip), vehicle: saline with Tween-80
[8] = endpoint: mean survival time, dose: 100.0 mg/kg/injection, schedule: Q01DX001 (ip), vehicle: other
[9] = endpoint: mean survival time, dose: 200.0 mg/kg/injection, schedule: Q01DX001 (ip), vehicle: other
[10] = endpoint: mean survival time, dose: 400.0 mg/kg/injection, schedule: Q01DX001 (ip), vehicle: other

Measured: T/C

CN1CCC(CN2c3ccccc3Sc3ccccc32)C1 (stereo unspecified)
inactive: endpoint: mean survival time, dose: 12.5 mg/kg/injection, schedule: Q01DX009 (ip), vehicle: saline with Tween-80 107 % of control | [1] 102 % of control | [2] 123 % of control

NCC(Br)CO (stereo unspecified)
inactive: endpoint: mean survival time, dose: 31.3 mg/kg/injection, schedule: Q01DX001 (ip), vehicle: other 95 % of control | endpoint: mean survival time, dose: 62.5 mg/kg/injection, schedule: Q01DX001 (ip), vehicle: other 95 % of control | endpoint: mean survival time, dose: 125.0 mg/kg/injection, schedule: Q01DX001 (ip), vehicle: other 100 % of control | endpoint: mean survival time, dose: 250.0 mg/kg/injection, schedule: Q01DX001 (ip), vehicle: other 101 % of control | endpoint: mean survival time, dose: 500.0 mg/kg/injection, schedule: Q01DX001 (ip), vehicle: other 97 % of control

Nc1ccc(C(=O)CC(O)(C(F)(F)F)C(F)(F)F)cc1
inactive: [3] 113 % of control | [4] 111 % of control | [5] 113 % of control

CCOC(=O)c1c[nH]n(C2OC(CO)C(O)C2O)c1=O (stereo unspecified)
inactive: endpoint: median survival time, dose: 45.5 mg/kg/injection, schedule: Q01DX005 (ip), vehicle: saline 96 % of control | endpoint: median survival time, dose: 90.9 mg/kg/injection, schedule: Q01DX005 (ip), vehicle: saline 96 % of control | endpoint: median survival time, dose: 181.9 mg/kg/injection, schedule: Q01DX005 (ip), vehicle: saline 98 % of control

CC(=O)OC(CNCC(=O)O)C(Cl)(Cl)Cl (stereo unspecified)
inactive: [3] 102 % of control | [4] 98 % of control | [5] 98 % of control

COc1ccc2c(c1)C1(C)CCC(=O)C(C)C1CC2 (stereo unspecified)
inactive: endpoint: mean survival time, dose: 100.0 mg/kg/injection, schedule: Q01DX001 (ip), vehicle: saline 94 % of control | endpoint: mean survival time, dose: 200.0 mg/kg/injection, schedule: Q01DX001 (ip), vehicle: saline 96 % of control | endpoint: mean survival time, dose: 400.0 mg/kg/injection, schedule: Q01DX001 (ip), vehicle: saline 96 % of control

O=C(CNC(=O)Nc1cccc(C(F)(F)F)c1)N/N=C/c1cccc([N+](=O)[O-])c1
inactive: [2] 96 % of control | [6] 88 % of control | [7] 92 % of control

COC(=O)C(NC(=O)OCc1ccccc1)C(=O)OC
inactive: [6] 105 % of control | [7] 107 % of control | endpoint: mean survival time, dose: 400.0 mg/kg/injection, schedule: Q01DX009 (ip), vehicle: saline with Tween-80 112 % of control

CCC(=O)N(N=O)c1ccccc1
inactive: endpoint: mean survival time, dose: 4.7 mg/kg/injection, schedule: Q04DX003 (ip), vehicle: saline 102 % of control | endpoint: mean survival time, dose: 9.4 mg/kg/injection, schedule: Q04DX003 (ip), vehicle: saline 107 % of control | endpoint: mean survival time, dose: 18.8 mg/kg/injection, schedule: Q04DX003 (ip), vehicle: saline 102 % of control

COc1cccc(C(=O)NC[n+]2cccc(O)c2)c1
inactive: endpoint: mean survival time, dose: 100.0 mg/kg/injection, schedule: Q01DX001 (ip), vehicle: saline with Tween-80 100 % of control | endpoint: mean survival time, dose: 200.0 mg/kg/injection, schedule: Q01DX001 (ip), vehicle: saline with Tween-80 92 % of control | endpoint: mean survival time, dose: 400.0 mg/kg/injection, schedule: Q01DX001 (ip), vehicle: saline with Tween-80 88 % of control

C/C=C\c1ccc(OCCOC(=O)Nc2ccc(C)cc2C)c(OC)c1
inactive: [2] 104 % of control | [6] 96 % of control | [7] 93 % of control

O=C(O)Cc1ccc(Br)cc1[N+](=O)[O-]
inactive: [8] 104 % of control | [9] 101 % of control | [10] 98 % of control

Cc1cccc(SC(=O)Nc2ccc(Cl)cc2C)c1
inactive: [6] 95 % of control | [7] 95 % of control

CN(C)NCc1ccccc1
inactive: endpoint: mean survival time, dose: 25.0 mg/kg/injection, schedule: Q01DX009 (ip), vehicle: saline 102 % of control | endpoint: mean survival time, dose: 50.0 mg/kg/injection, schedule: Q01DX009 (ip), vehicle: saline 102 % of control | endpoint: mean survival time, dose: 100.0 mg/kg/injection, schedule: Q01DX009 (ip), vehicle: saline 94 % of control and 107 % of control

CCCCCCCCCCCCCC[N+](C)(C)Cc1cc(=O)c(O)co1
inactive: endpoint: mean survival time, dose: 25.0 mg/kg/injection, schedule: Q04DX003 (ip), vehicle: Klucel (hydroxypropylcellulose) (HPC) 97 % of control | endpoint: mean survival time, dose: 50.0 mg/kg/injection, schedule: Q04DX003 (ip), vehicle: Klucel (hydroxypropylcellulose) (HPC) 109 % of control | endpoint: mean survival time, dose: 100.0 mg/kg/injection, schedule: Q04DX003 (ip), vehicle: Klucel (hydroxypropylcellulose) (HPC) 109 % of control | [3] 87 % of control

C[CH2][Pb]([CH2]C)([CH2]C)[O]C(=O)C=C1CCCC1
inactive: endpoint: mean survival time, dose: 0.63 mg/kg/injection, schedule: Q01DX009 (ip), vehicle: saline 96 % of control | endpoint: mean survival time, dose: 1.25 mg/kg/injection, schedule: Q01DX009 (ip), vehicle: saline 102 % of control | endpoint: mean survival time, dose: 2.5 mg/kg/injection, schedule: Q01DX009 (ip), vehicle: saline 95 % of control | endpoint: mean survival time, dose: 5.0 mg/kg/injection, schedule: Q04DX003 (ip), vehicle: saline with Tween-80 92 % of control | endpoint: mean survival time, dose: 10.0 mg/kg/injection, schedule: Q04DX003 (ip), vehicle: saline with Tween-80 92 % of control

O=C(CNC(=O)Nc1cccc([N+](=O)[O-])c1)N/N=C/c1c(O)ccc2ccccc12
inactive: [2] 88 % of control | [6] 92 % of control | [7] 95 % of control

NNC(=O)C1C2CCCCC21 (stereo unspecified)
inactive: [1] 94 % of control | [2] 97 % of control | [6] 97 % of control

O=C(NC(C(=O)O)c1ccccc1)OCc1ccccc1 (stereo unspecified)
inactive: [3] 102 % of control | [4] 107 % of control | [5] 97 % of control

C[CH2][Sn](/[CH]=C/C=C/OC)([CH2]C)[CH2]C
inactive: endpoint: mean survival time, dose: 0.04 mg/kg/injection, schedule: Q01DX009 (ip), vehicle: saline 101 % of control | endpoint: mean survival time, dose: 0.09 mg/kg/injection, schedule: Q01DX009 (ip), vehicle: saline 101 % of control

CC1(C)N=C(N)N=C(N)N1c1cccc(CCCc2ccccc2)c1
inactive: endpoint: mean survival time, dose: 6.25 mg/kg/injection, schedule: Q01DX001 (ip), vehicle: saline 96 % of control

OC(Cc1ccnc2ccccc12)C(Cl)(Cl)Cl (stereo unspecified)
inactive: endpoint: mean survival time, dose: 100.0 mg/kg/injection, schedule: Q04DX003 (ip), vehicle: saline 103 % of control | endpoint: mean survival time, dose: 200.0 mg/kg/injection, schedule: Q04DX003 (ip), vehicle: saline 103 % of control | endpoint: mean survival time, dose: 400.0 mg/kg/injection, schedule: Q04DX003 (ip), vehicle: saline 97 % of control

[N-]=[N+]=NC1CCOC(n2cnc3c(N)ncnc32)C1O (stereo unspecified)
inactive: endpoint: median survival time, dose: 25.0 mg/kg/injection, schedule: Q01DX005 (ip), vehicle: Klucel (hydroxypropylcellulose) (HPC) 102 % of control | endpoint: median survival time, dose: 25.0 mg/kg/injection, schedule: Q01DX005 (ip), vehicle: Klucel + Tween-80 101 % of control | endpoint: median survival time, dose: 50.0 mg/kg/injection, schedule: Q01DX005 (ip), vehicle: Klucel (hydroxypropylcellulose) (HPC) 100 % of control | endpoint: median survival time, dose: 50.0 mg/kg/injection, schedule: Q01DX005 (ip), vehicle: Klucel + Tween-80 101 % of control | endpoint: median survival time, dose: 100.0 mg/kg/injection, schedule: Q01DX005 (ip), vehicle: Klucel (hydroxypropylcellulose) (HPC) 108 % of control | endpoint: median survival time, dose: 100.0 mg/kg/injection, schedule: Q01DX005 (ip), vehicle: Klucel + Tween-80 102 % of control | endpoint: median survival time, dose: 200.0 mg/kg/injection, schedule: Q01DX005 (ip), vehicle: Klucel (hydroxypropylcellulose) (HPC) 102 % of control | endpoint: median survival time, dose: 200.0 mg/kg/injection, schedule: Q01DX005 (ip), vehicle: Klucel + Tween-80 102 % of control

Clc1ccc(C(=C(c2ccc(Cl)cc2)c2ccc(Cl)cc2)c2ccc(Cl)cc2)cc1
inactive: endpoint: mean survival time, dose: 75.0 mg/kg/injection, schedule: Q01DX001 (ip), vehicle: saline 100 % of control | endpoint: mean survival time, dose: 150.0 mg/kg/injection, schedule: Q01DX001 (ip), vehicle: saline 95 % of control | endpoint: mean survival time, dose: 300.0 mg/kg/injection, schedule: Q01DX001 (ip), vehicle: saline 93 % of control

CCOc1ccc2c(c1)c(CC(=O)O)cn2C
inactive: [8] 98 % of control | [9] 101 % of control | [10] 98 % of control
